{
  "source": "patent US20230158034A1",
  "about": "“CO-TREATMENT WITH CDK4/6 AND CDK2 INHIBITORS TO SUPPRESS TUMOR ADAPTATION TO CDK2 INHIBITORS” (Pfizer Inc., priority 2020, published 2023)",
  "key": {"[1]": {"tested_on": "CDK2 activity (DHB sensor phosphorylation)", "experiment": "DHB-based CDK2 activity sensor, single-cell time-lapse imaging (C/N ratio)", "parameters": "species or system human", "excerpt": "The DHB sensor is localized to the nucleus when it is not phosphorylated. Upon phosphorylation, the nuclear localization signal is masked, the nuclear export signal is unmasked, and the sensor steadily translocates to the cytoplasm in response to increasing CDK2 activity (FIG. 1A). Thus, kinase activity can be quantified by the ratio of the cytoplasmic to nuclear fluorescence intensity (C/N ratio) of the DHB sensor. […] Asynchronously cycling cells were first imaged for approximately 20 hr in the absence of drug to establish the cell-cycle phase of each cell; the movie was then paused to add drug, and then imaging was continued for another 1-2 days. Because the cells were cycling asynchronously, all cell-cycle phases with one drug treatment were sampled. This allowed the present inventors to computationally isolate traces for cells that received drug at any time since the completion of anaphase.\nCells were seeded at least 24 hr prior to imaging in phenol-red-free full-growth medium in glass-bottom 96-well plates (CellVis P96-1.5H-N) that were coated with collagen prior to seeding. The seeding density was chosen such that the cells would remain sub-confluent until the end of the imaging period. Cells were first imaged for 16-20 hr in full-growth media without drug. The movie was then briefly paused and the full-growth media was replaced with full-growth media containing drug at the desired concentration. The plate was then re-inserted into the microscope and aligned to its prior position and imaging was continued for an additional 24-48 hr. Images were acquired every 12 min (for MCF10A or RPE-hTERT) or every 20 min (for MCF7 or OVCAR3) on a Nikon Eclipse Ti or Ti2 microscope with a 10×0.45 NA objective in a humidified, 37° C. chamber at 5% CO2. Exposure times for all movies for all channels were kept under 500 ms per timepoint to minimize phototoxicity. Cell tracking was performed using published MATLAB scripts (Cappell et al., 2016), as described previously (Arora et al., 2017). The tracking code is available for download at https://github.com/scappell/Cell_tracking. Cell counts over time were obtained by counting the number of segmented nuclei in each frame of the movie.\nAsynchronously cycling cells that divided and received drug treatments during the imaging period were initially segmented into categories based on the cells' time of anaphase relative to the time of drug addition. These cells were then additionally subcategorized based on their DHB cytoplasmic/nuclear (C/N) ratio after the mitotic event. C/N ratio was calculated by quantifying the ratio of cytoplasmic to nuclear mean DHB fluorescence, with the cytoplasmic component calculated as the mean of the top 50th percentile of a ring of pixels outside of the nuclear mask.\nCells were classified as CDK2^inc if the DHB C/N ratio was above 0.5 units 3 hr after anaphase, otherwise they were classified as CDK2^low. Figure legends indicate whether only CDK2^inc cells or whether all cells are plotted. The median of the single-cell traces in a subcategory was then used to create median trace with 95% confidence interval representative of the particular subcategory. All cell trace analysis was done using custom MATLAB scripts and code is available upon request."}, "[2]": {"tested_on": "Kras^+/LSLG12V; Trp53^L/L lung tumors", "experiment": "Mouse lung tumor model, tumor volume by CT scans", "assay_type": "in vivo", "protocol": "To test the potential compensatory relationship between CDK2 and CDK4/6 in vivo, an established mouse lung tumor model driven by KRAS^G12V and TRP53 mutations was used. Kras^+/LSLG12V, Trp53^L/L mice intra-nasally infected with adenoviral particles encoding Cre recombinase developed lung tumors with a latency of 5 months. Once tumor development was detected by CT scans, animals were treated with either vehicle or palbociclib (70 mg/kg QD) for 28 days and tumor volumes were subsequently measured by CT scans at the end of the treatment period.\nMice: Kras^+/LSLG12V Trp53^L/L and Cdk2^−/− mice have been previously described (Guerra et al., 2003; Jonkers et al., 2001; Ortega et al., 2003). Compound mice using the following transgenes: Kras^+/LSLG12V, (Guerra et al., 2003); Trp53^L/L (Lee et al., 2012), and Cdk2^−/− (Ortega et al., 2003) were generated for this study. All animal experiments were approved by the Ethical Committees of the Spanish National Cancer Research Centre (CNIO), the Carlos III Health Institute and the Autonomous Community of Madrid (PROEX 270/14) and were performed in accordance with the guidelines stated in the International Guiding Principles for Biomedical Research Involving Animals, developed by the Council for International Organizations of Medical Sciences (CIOMS). Mice were housed in specific-pathogen-free conditions at CNIO's Animal Facility (AAALAC, JRS:dpR 001659). Female and male mice were used for the experiments. All mice were genotyped at the CNIO's Genomic Unit. […]\nMicro CT imaging: Image studies were done by the Molecular Imaging Core Unit at the CNIO. […] Tumor volume was calculated as follows: (short axis x short axis x long axis/2).\nPharmacological treatment in mice: Kras^+/LSLG12V; Trp53^L/L; Cdk2^−/− and Kras^+/LSLG12V; Trp53^L/L; Cdk2^+/+ mice were infected with 10^6 pfu of Ad-Cre. Once tumors were detected by CT, mice harboring at least one tumor bigger than 3 mm^3 were enrolled in the different treatment groups. […] Drug efficacy was monitored by CT measurements."}, "[3]": {"conditions": "PF3600, MCF10A, MCF7 and RPE-hTERT cells"}},
  "data": [
    {"molecule": "C[C@@]1(O)CCC[C@H]1n1c(=O)c(C(F)F)cc2cnc(NC3CCN(S(C)(=O)=O)CC3)nc21", "note": "[PF3600, 6-(difluoromethyl)-8-[(1R,2R)-2-hydroxy-2-methylcyclopentyl]-2-{[1-(methylsulfonyl)-piperidin-4-yl]amino}pyrido[2,3-d]pyrimidin-7(8H)-one]", "values": [
      {"measurement": "DHB sensor phosphorylation behavior", "setting": "[1]; 25 nM PF3600, MCF7", "result": "drop-rebound behavior"},
      {"measurement": "DHB sensor phosphorylation behavior", "setting": "[1]; 100 nM PF3600, MCF7", "result": "brief rebound followed by long-lived suppression of DHB phosphorylation"},
      {"measurement": "cells that initially responded", "setting": "[1]; PF3600", "result": 100, "unit": "%"},
      {"measurement": "rebound of DHB sensor phosphorylation", "setting": "[1]; PF3600, OVCAR3 cells", "result": "did not rebound"},
      {"measurement": "onset of rebound in DHB sensor phosphorylation", "setting": "[1]; [3]", "result": "1 to 2", "unit": "h"},
      {"measurement": "time until DHB sensor phosphorylation returned to pre-treatment levels", "setting": "[1]; [3]", "result": "≤ 5", "unit": "h"},
      {"measurement": "tumor volumes", "setting": "[2]; PF3600 50 mg/kg BID for 4 weeks, Trp53^L/L mice", "result": "significantly reduced tumor volumes"}
    ]},
    {"molecule": "CC(=O)c1c(C)c2cnc(Nc3ccc(N4CCNCC4)cn3)nc2n(C2CCCC2)c1=O", "note": "[palbociclib]", "values": [
      {"measurement": "effect on DHB sensor phosphorylation, cell-cycle progression, or the timing of mitosis", "setting": "[1]; 1 μM palbociclib added 5 hr or later after anaphase/mitosis, MCF10A", "result": "no immediate effect"},
      {"measurement": "tumor size", "setting": "[2]; palbociclib 70 mg/kg QD for 4 weeks, Trp53^L/L, Cdk2^−/− mice, p=0.037", "result": "significantly reduced tumor size"},
      {"measurement": "tumor volume fold change vs vehicle", "setting": "[2]; palbociclib 70 mg/kg QD for 28 days, Trp53^L/L mice (Cdk2^+/+)", "result": "no significant reduction in tumor burden"}
    ]}
  ]
}
